“Also recorded” adds a separate entry of the source. One block for each compound: values may come before it.
Tests used:
bovine coronary artery = test: relaxation of isolated bovine coronary artery rings contracted with potassium chloride
Excerpt: FIG. 5 depicts a graph showing the relaxation to sodium nitroprusside in the bovine coronary artery in the presence (o; n=7) or absence (; n:12) of a subthreshhold dose of S-nitrosocaptopril. The data are expressed as a percentage of the initial tension generated by potassium chloride (4×10^-2 M; coronary arteries) and are shown as mean ±SEM in each group.
(§1) Blood Vessel Preparation. Bovine coronary or femoral arteries were obtained from an abattoir immediately after sacrifice of two- to four-week-old calves. Immediately after removal, the vessel was placed in ice-cold physiologic salt solution (PSS) containing 118.3 mM NaCl, 4.7 mM KCl, 2.5 mM CaCl2, 1.2 mM MgSO4, 1.2 mM KH2 PO4, 25.0 mM NaHCO3, 11.1 mM glucose, and 0.026 mM calcium disodium (ethylenedinitrilo)-tetraacetate. The vessels were then cleaned of adventitial tissue and cut into rings of approximately 5 mm lengths. When called for by the protocol, endothelium was removed from a ring by gently rubbing the luminal surface with a watchmaker's forceps. Vascular rings with intact endothelium were then suspended in organ chambers containing 25 ml of PSS at 37° aerated with 95% O2 -5% CO2. The rings were connected to force transducers (Grass FT03C, Quincy, Mass.) and changes in isometric force recorded continuously (Grass Polygraph Model 79B) over a period of 90 minutes. The optimal length-tension relationship was determined for each ring by observing the response to 10^-6 M norepinephrine after increments in tension of 0.5 gm. The functional integrity of the endothelium was assessed by contracting the vessel with 10^-6 M norepinephrine and then observing the response to 3×10^-7 M acetylcholine chloride.
Thus, to study vasodilating agents in this tissue the vessels were first contracted with potassium chloride (40 mM). Relaxations are expressed as a percent of the concentration to 40 mM potassium chloride.
Relaxations to S-nitrosocaptopril were inhibited by the antagonist of soluble guanylate cyclase, methylene blue (FIG. 4). Sodium nitroprusside induced dose-dependent relaxations of contractions to potassium chloride. The relaxation to sodium nitroprusside was inhibited by subthreshold doses of S-nitrosocaptopril (FIG. 5).

bovine femoral artery = test: relaxation of isolated bovine femoral artery rings contracted with norepinephrine; details: methylene blue 10^-5 M; FIG. 4
Method: FIG. 2 depicts a graph showing the effect of S-nitrosocaptopril on the contraction of bovine femoral arteries to norepinephrine.
as §1
Vascular ring segments with intact endothelium were […] contracted with a concentration of norepinephrine inducing a half-maximal response. After a stable contraction had been achieved, the tissue was exposed to increasing concentrations of S-nitrosocaptopril in cumulative half-log increments. […] The apparent IC50 is approximately 1 μM.

[1] = system: bovine femoral artery, contraction to angiotensin II; test: contraction of the bovine femoral artery to angiotensin II; details: for Contraction to Agonist: Angiotensin II
Method: The data are expressed as a percentage of the maximal response to norepinephrine (10^-4 M) and are shown as mean ±SEM in each group (n=6).
as §1

[2] = system: bovine femoral artery, contraction to angiotensin I; test: contraction of the bovine femoral artery to angiotensin I; details: for Contraction to Agonist: Angiotensin I
Method: The data are expressed as a percentage of the maximal response to norepinephrine (10^-6 M) and are shown as mean ±SEM in each group (n=7).
as §1

[3] = -Log M 6, Sar 10^-7 M, * p < 0.05
[4] = -Log M 6.5, Sar 10^-7 M, * p < 0.05
[5] = -Log M 7, Sar 10^-7 M, * p < 0.05
[6] = -Log M 7.5, Sar 10^-7 M, * p < 0.05
[7] = -Log M 8, Sar 10^-7 M, * p < 0.05
[8] = saralasin, lower concentrations than 10^-8 M

Compound: CN(C)c1ccc2nc3ccc(=[N+](C)C)cc-3sc2c1 [methylene blue]
effect of methylene blue on relaxations to S-nitrosocaptopril, coronary artery (in words) (bovine coronary artery; methylene blue 10^-5 M, FIG. 4): significantly less than control (p<0.05); also recorded: inhibited
effect of methylene blue on relaxations to S-nitrosocaptopril, femoral artery (in words) (bovine femoral artery): significantly less than control (p<0.05)

Compound: [Cl-].[K+] [potassium chloride]
stable contraction induced by potassium chloride (bovine coronary artery; 40 mM): 7.3 ± 4.3 g

Compound: CNCC(=O)N[C@@H](CCCN=C(N)N)C(=O)N[C@H](C(=O)N[C@@H](Cc1ccc(O)cc1)C(=O)N[C@H](C(=O)N[C@@H](Cc1cnc[nH]1)C(=O)N1CCC[C@H]1C(=O)N[C@@H](C)C(=O)O)C(C)C)C(C)C [saralasin]
Contraction to Agonist [1, 3]: 6.0 percentage of the maximal cont
Contraction to Agonist ([1]; -Log M 6, Sar 10^-8 M): 32.8 ± 21.0 percentage of the maximal cont
Contraction to Agonist ([1]; -Log M 6, Sar 10^-9 M): 51.8 ± 18.8 percentage of the maximal cont
Contraction to Agonist [1, 4]: 9.2 ± 5.3 percentage of the maximal cont
Contraction to Agonist ([1]; -Log M 6.5, Sar 10^-8 M): 32.8 ± 20.4 percentage of the maximal cont
Contraction to Agonist ([1]; -Log M 6.5, Sar 10^-9 M): 51.8 ± 18.8 percentage of the maximal cont
Contraction to Agonist [1, 5]: 3.2 ± 1.8 percentage of the maximal cont
Contraction to Agonist ([1]; -Log M 7, Sar 10^-8 M): 32.4 ± 17.3 percentage of the maximal cont
Contraction to Agonist ([1]; -Log M 7, Sar 10^-9 M): 51.8 ± 18.8 percentage of the maximal cont
Contraction to Agonist [1, 6]: 2.8 ± 2.8 percentage of the maximal cont
Contraction to Agonist ([1]; -Log M 7.5, Sar 10^-8 M): 24.0 ± 13.8 percentage of the maximal cont
Contraction to Agonist ([1]; -Log M 7.5, Sar 10^-9 M): 43.4 ± 16.9 percentage of the maximal cont
Contraction to Agonist [1, 7]: 1.7 ± 1.7 percentage of the maximal cont
Contraction to Agonist ([1]; -Log M 8, Sar 10^-8 M): 10.7 ± 8.1 percentage of the maximal cont
Contraction to Agonist ([1]; -Log M 8, Sar 10^-9 M): 34.0 ± 12.9 percentage of the maximal cont
Contraction to Agonist ([1]; -Log M 8.5, Sar 10^-7 M): 0 percentage of the maximal cont
Contraction to Agonist ([1]; -Log M 8.5, Sar 10^-8 M): 0.9 ± 0.9 percentage of the maximal cont
Contraction to Agonist ([1]; -Log M 8.5, Sar 10^-9 M): 18.5 ± 9.6 percentage of the maximal cont
Contraction to Agonist ([1]; -Log M 9, Sar 10^-7 M): 0 percentage of the maximal cont
Contraction to Agonist ([1]; -Log M 9, Sar 10^-8 M): 0 percentage of the maximal cont
Contraction to Agonist ([1]; -Log M 9, Sar 10^-9 M): 2.4 ± 1.2 percentage of the maximal cont
effect of saralasin on contractions to angiotensin II (in words) ([1]; saralasin 10^-7 M): attenuated contractions
effect of saralasin on contractions to angiotensin II (in words) [1, 8]: no effect
Contraction to Agonist [2, 3]: 0.9 ± 0.9 percentage of the maximal cont
Contraction to Agonist ([2]; -Log M 6, Sar 10^-8 M): 35.5 ± 7.0 percentage of the maximal cont
Contraction to Agonist ([2]; -Log M 6, Sar 10^-9 M): 25.6 ± 13.0 percentage of the maximal cont
Contraction to Agonist [2, 4]: 0 percentage of the maximal cont
Contraction to Agonist ([2]; -Log M 6.5, Sar 10^-8 M): 35.7 ± 22.1 percentage of the maximal cont
Contraction to Agonist ([2]; -Log M 6.5, Sar 10^-9 M): 31.4 ± 10.7 percentage of the maximal cont
Contraction to Agonist [2, 5]: 0 percentage of the maximal cont
Contraction to Agonist ([2]; -Log M 7, Sar 10^-8 M, * p < 0.05): 19.6 ± 7.0 percentage of the maximal cont
Contraction to Agonist ([2]; -Log M 7, Sar 10^-9 M): 33.0 ± 12.6 percentage of the maximal cont
Contraction to Agonist [2, 6]: 0 percentage of the maximal cont
Contraction to Agonist ([2]; -Log M 7.5, Sar 10^-8 M, * p < 0.05): 16.3 ± 9.4 percentage of the maximal cont
Contraction to Agonist ([2]; -Log M 7.5, Sar 10^-9 M): 22.6 ± 10.1 percentage of the maximal cont
Contraction to Agonist [2, 7]: 0 percentage of the maximal cont
Contraction to Agonist ([2]; -Log M 8, Sar 10^-8 M): 7.9 ± 7.9 percentage of the maximal cont
Contraction to Agonist ([2]; -Log M 8, Sar 10^-9 M): 3.9 ± 1.5 percentage of the maximal cont
Contraction to Agonist ([2]; -Log M 8.5, Sar 10^-7 M): 0 percentage of the maximal cont
Contraction to Agonist ([2]; -Log M 8.5, Sar 10^-8 M): 1.6 ± 1.6 percentage of the maximal cont
Contraction to Agonist ([2]; -Log M 8.5, Sar 10^-9 M): 0 percentage of the maximal cont
Contraction to Agonist ([2]; -Log M 9, Sar 10^-7 M): 0 percentage of the maximal cont
Contraction to Agonist ([2]; -Log M 9, Sar 10^-8 M): 0 percentage of the maximal cont
Contraction to Agonist ([2]; -Log M 9, Sar 10^-9 M): 0 percentage of the maximal cont
effect of saralasin on contractions to angiotensin I (in words) ([2]; saralasin 10^-7 M): attenuated contractions
effect of saralasin on contractions to angiotensin I (in words) ([2]; saralasin 10^-8 M): inhibited contractions to angiotensin I
effect of saralasin on contractions to angiotensin I (in words) [2, 8]: no effect

Compound: angiotensin I: agonist; converted by ACE to angiotensin II by removal of the carboxy terminal His-Leu (DRVYIHPFHL; Angiotensin-1; UniProt P01019 25-34, looked up)
Contraction to Agonist ([2]; -Log M 6, Sar 0 (control)): 45.3 ± 13.5 percentage of the maximal cont
Contraction to Agonist ([2]; -Log M 6.5, Sar 0 (control)): 42.5 ± 13.4 percentage of the maximal cont
Contraction to Agonist ([2]; -Log M 7, Sar 0 (control)): 38.6 ± 15.9 percentage of the maximal cont
Contraction to Agonist ([2]; -Log M 7.5, Sar 0 (control)): 27.7 ± 12.7 percentage of the maximal cont
Contraction to Agonist ([2]; -Log M 8, Sar 0 (control)): 12.6 ± 11.4 percentage of the maximal cont
Contraction to Agonist ([2]; -Log M 8.5, Sar 0 (control)): 3.3 ± 5.9 percentage of the maximal cont
Contraction to Agonist ([2]; -Log M 9, Sar 0 (control)): 0 percentage of the maximal cont
maximum contraction response to angiotensin I ([2]; n=11): 4.4 ± 1.6 g

EC50 ([1]; n=6, read-out: average ED50 of contraction to angiotensin II): 8.3 nM
Compound: angiotensin II: powerful pressor agent; agonist (DRVYIHPF; Angiotensin-2; UniProt P01019 25-32, looked up)
Contraction to Agonist ([1]; -Log M 6, Sar 0 (control)): 57.9 ± 3.1 percentage of the maximal cont
Contraction to Agonist ([1]; -Log M 6.5, Sar 0 (control)): 57.1 ± 3.1 percentage of the maximal cont
Contraction to Agonist ([1]; -Log M 7, Sar 0 (control)): 47.2 ± 2.9 percentage of the maximal cont
Contraction to Agonist ([1]; -Log M 7.5, Sar 0 (control)): 40.3 ± 2.6 percentage of the maximal cont
Contraction to Agonist ([1]; -Log M 8, Sar 0 (control)): 28.8 ± 1.7 percentage of the maximal cont
Contraction to Agonist ([1]; -Log M 8.5, Sar 0 (control)): 11.8 ± 1.1 percentage of the maximal cont
Contraction to Agonist ([1]; -Log M 9, Sar 0 (control)): 0 percentage of the maximal cont
maximum contraction response to angiotensin II ([1]; n=6): 6.4 ± 2.5 g
maximum response to angiotensin II ([1]; without S-nitrosocaptopril, n=5): 55.8±6.9 % of the maximal response to norepinephrine

From patent publication US5536723A, “S-nitroso derivatives of hydrazinoacetic acids, 1-[(acylthio and (mercapto)-1-oxoalkyl]-1,2,34-Tetrahydroquinoline-2-carboxylic acids and alanyl prolines and isoquinolines” (Brigham & Women's Hospital, priority 1994, dated 1996)
